Results taken from patent publication US10385065B2, “Antibacterial compounds” (priority 2014, dated 2019).
In brackets after ≈: the same amount, converted by molar mass. Where two headings read alike, the source gives them in different places.

Key:
Format in all cases: cell-based
[1] = tested on: human hepatic cell line (HepG2 ATCC HB-8065); experiment: Human cell viability assay (CellTiter-Glo), HepG2; details: HepG2, 24 h incubation, tested over 1-128 μg/mL, read-out: IC50 values against HepG2
Description: Compounds are assessed for potential non-specific cytotoxic effects against a human hepatic cell line (HepG2 ATCC HB-8065). HepG2 cells are seeded at 20,000 cells/well in 96-well microtitre plates in minimal essential medium (MEM) supplemented with a final concentration of 10% FBS and 1 mM sodium pyruvate. After 24 h compound dilutions are prepared in Dulbecco's minimum essential media (DMEM) supplemented with final concentrations of 0.001% FBS, 0.3% bovine albumin and 0.02% HEPES and added to cells. Compounds are tested in two-fold serial dilutions over a final concentration range of 1-128 μg/mL in a final DMSO concentration of 1% vol/vol. Chlorpromazine is used as a positive control. Cells are incubated with compound at 37° C. and 5% CO2 for a further 24 h, after which time the CellTiter-Glo reagent (Promega) is added. Luminescence is measured on a BMG Omega plate reader. Data are analysed using GraphPad Prism software to determine the concentration of compound that inhibits cell viability by fifty percent (IC50).

[2] = tested on: Staphylococcus aureus ATCC 29213; experiment: MIC, broth microdilution, S. aureus ATCC 29213
[3] = tested on: Escherichia coli ATCC 25922; experiment: MIC, broth microdilution, E. coli ATCC 25922; details: ATCC25922, Table 1, wild type strain
[4] = tested on: Enterococcus faecium ATCC 19434; experiment: MIC, E. faecium ATCC 19434; details: ATCC19434, Table 2
[5] = tested on: Haemophilus influenzae ATCC 49247; experiment: MIC, H. influenzae ATCC 49247; details: ATCC49247, Table 4
[6] = ATCC29213, Table 1, wild type strain, read-out: MIC S. aureus ATCC 29213
[7] = ATCC 29213 / MSSA, Table 2, read-out: MIC S. aureus (MSSA) ATCC 29213 CLSI control strain

| Structure (SMILES) | IC50 [1] [µg/mL] | MIC [2, 6] [µg/mL] | MIC [2, 7] [µg/mL] | MIC [3] [µg/mL] | MIC [4] [µg/mL] | MIC [5] [µg/mL] |
| --- | --- | --- | --- | --- | --- | --- |
| O=C(O)c1cn(C2CC2)c2cc(N3CCNCC3)c(F)cc2c1=O [Ciprofloxacin, reference compound] | > 100 | – | – | – | – | – |
| N#Cc1c(F)cc(-c2cc3c(cc2F)c2ocnc2c(=O)n3C2CC2)cc1F [Compound 65, 4-(5-cyclopropyl-8-fluoro-4-oxo-oxazolo[4,5-c]quinolin-7-yl)-2,6-difluoro-benzonitrile] | – | 1 to 10 (≈ 2.62 to 26.2 µM) | 1 to 10 (≈ 2.62 to 26.2 µM) | > 100 | > 100 | 10 to 100 (≈ 26.2 to 262 µM) |
| CN(C)C(=O)c1ccc(-c2cc3c(cc2F)c2ocnc2c(=O)n3C2CC2)cc1 [Compound 66, 4-(5-cyclopropyl-8-fluoro-4-oxo-oxazolo[4,5-c]quinolin-7-yl)-N,N-dimethyl-benzamide] | – | 1 to 10 (≈ 2.55 to 25.5 µM) | 1 to 10 (≈ 2.55 to 25.5 µM) | > 100 | > 100 | 10 to 100 (≈ 25.5 to 255 µM) |
| CNC(=O)c1ccc(-c2cc3c(cc2F)c2ocnc2c(=O)n3C2CC2)cc1F [Compound 67, 4-(5-cyclopropyl-8-fluoro-4-oxo-oxazolo[4,5-c]quinolin-7-yl)-2-fluoro-N-methyl-benzamide] | – | 1 to 10 (≈ 2.53 to 25.3 µM) | 1 to 10 (≈ 2.53 to 25.3 µM) | > 100 | > 100 | 10 to 100 (≈ 25.3 to 253 µM) |
| O=c1c2ncoc2c2cc(F)c(-c3cc(F)c(CO)cc3F)cc2n1C1CC1 [Compound 68, 5-cyclopropyl-7-[2,5-difluoro-4-(hydroxymethyl)phenyl]-8-fluoro-oxazolo[4,5-c]quinolin-4-one] | – | < 1 | < 1 | 1 to 10 (≈ 2.59 to 25.9 µM) | > 100 | < 1 |
| Nc1ccc(-c2cc3c(cc2F)c2ocnc2c(=O)n3C2CC2)cn1 [Compound 70, 7-(6-amino-3-pyridyl)-5-cyclopropyl-8-fluoro-oxazolo[4,5-c]quinolin-4-one] | – | 10 to 100 (≈ 29.7 to 297 µM) | 10 to 100 (≈ 29.7 to 297 µM) | > 100 | > 100 | > 100 |
| Cc1nc2c(=O)n(C3CC3)c3cc(-c4ccc(C=O)cc4)c(F)cc3c2o1 [Compound 72, 4-(5-cyclopropyl-8-fluoro-2-methyl-4-oxo-oxazolo[4,5-c]quinolin-7-yl)benzaldehyde] | – | 10 to 100 (≈ 27.6 to 276 µM) | 10 to 100 (≈ 27.6 to 276 µM) | > 100 | > 100 | 1 to 10 (≈ 2.76 to 27.6 µM) |
| Cc1nc2c(=O)n(C3CC3)c3cc(-c4ccc5[nH]ncc5c4)c(F)cc3c2o1 [Compound 73, 5-cyclopropyl-8-fluoro-7-(1H-indazol-5-yl)-2-methyl-oxazolo[4,5-c]quinolin-4-one] | – | < 1 | < 1 | > 100 | > 100 | 1 to 10 (≈ 2.67 to 26.7 µM) |
| Cc1nc2c(=O)n(C3CC3)c3cc(-c4ccncc4F)c(F)cc3c2o1 [Compound 74, 5-cyclopropyl-8-fluoro-7-(3-fluoro-4-pyridyl)-2-methyl-oxazolo[4,5-c]quinolin-4-one] | – | 10 to 100 (≈ 28.3 to 283 µM) | 10 to 100 (≈ 28.3 to 283 µM) | 10 to 100 (≈ 28.3 to 283 µM) | > 100 | 1 to 10 (≈ 2.83 to 28.3 µM) |
| Cc1nc2c(=O)n(C3CC3)c3cc(-c4ccncc4)c(F)cc3c2o1 [Compound 75, 5-cyclopropyl-8-fluoro-2-methyl-7-(4-pyridyl)oxazolo[4,5-c]quinolin-4-one] | – | 1 to 10 (≈ 2.98 to 29.8 µM) | 1 to 10 (≈ 2.98 to 29.8 µM) | 10 to 100 (≈ 29.8 to 298 µM) | > 100 | 1 to 10 (≈ 2.98 to 29.8 µM) |
| CC(=O)c1cc(F)c(-c2cc3c(cc2F)c2oc(C)nc2c(=O)n3C2CC2)cc1F [Compound 77, 7-(4-acetyl-2,5-difluoro-phenyl)-5-cyclopropyl-8-fluoro-2-methyl-oxazolo[4,5-c]quinolin-4-one] | – | 10 to 100 (≈ 24.3 to 243 µM) | 10 to 100 (≈ 24.3 to 243 µM) | > 100 | > 100 | > 100 |
| Cc1nc2c(=O)n(C3CC3)c3cc(-c4cc(F)c(C(N)=O)cc4F)c(F)cc3c2o1 [Compound 78, 4-(5-cyclopropyl-8-fluoro-2-methyl-4-oxo-oxazolo[4,5-c]quinolin-7-yl)-2,5-difluoro-benzamide] | – | > 100 | > 100 | > 100 | > 100 | 10 to 100 (≈ 24.2 to 242 µM) |
| NC1C2CN(c3nc4c(cc3F)c3ocnc3c(=O)n4C3CC3)CC12 (stereo not drawn) [Compound 82, 7-(6-amino-3-azabicyclo[3.1.0]hexan-3-yl)-5-cyclopropyl-8-fluoro-oxazolo[4,5-c][1,8]naphthyridin-4-one] | – | 10 to 100 (≈ 29.3 to 293 µM) | 10 to 100 (≈ 29.3 to 293 µM) | 1 to 10 (≈ 2.93 to 29.3 µM) | > 100 | 10 to 100 (≈ 29.3 to 293 µM) |
| CN(C)C1CCN(c2nc3c(cc2F)c2ocnc2c(=O)n3C2CC2)C1 (stereo not drawn) [Compound 83, 5-cyclopropyl-7-[3-(dimethylamino)pyrrolidin-1-yl]-8-fluoro-oxazolo[4,5-c][1,8]naphthyridin-4-one] | – | 10 to 100 (≈ 28 to 280 µM) | 10 to 100 (≈ 28 to 280 µM) | 1 to 10 (≈ 2.8 to 28 µM) | > 100 | 10 to 100 (≈ 28 to 280 µM) |
| Nc1cc(-c2nc3c(cc2F)c2ocnc2c(=O)n3C2CC2)c(F)cc1F [Compound 85, 7-(5-amino-2,4-difluorophenyl)-5-cyclopropyl-8-fluoro-oxazolo[4,5-c]1,8-naphthyridin-4-one] | – | 10 to 100 (≈ 26.9 to 269 µM) | 10 to 100 (≈ 26.9 to 269 µM) | 10 to 100 (≈ 26.9 to 269 µM) | > 100 | 1 to 10 (≈ 2.69 to 26.9 µM) |
| Cc1nc2c(=O)n(C3CC3)c3nc(-c4cc(F)c(N)cc4F)c(F)cc3c2o1 [Compound 86, 7-(4-amino-2,5-difluorophenyl)-5-cyclopropyl-8-fluoro-2-methyl-oxazolo[4,5-c]1,8-naphthyridin-4-one] | – | > 100 | 10 to 100 (≈ 25.9 to 259 µM) | > 100 | > 100 | 10 to 100 (≈ 25.9 to 259 µM) |
| Cc1nc2c(=O)n(C3CC3)c3nc(-c4ccc5[nH]ncc5c4)c(F)cc3c2o1 [Compound 87] | – | > 100 | 10 to 100 (≈ 26.6 to 266 µM) | > 100 | > 100 | 10 to 100 (≈ 26.6 to 266 µM) |
| Cc1nc2c(=O)n3c4c(c(N5CCN(C)CC5)c(F)cc4c2o1)OC[C@@H]3C [Compound 91] | – | 10 to 100 (≈ 26.9 to 269 µM) | 10 to 100 (≈ 26.9 to 269 µM) | 10 to 100 (≈ 26.9 to 269 µM) | > 100 | 1 to 10 (≈ 2.69 to 26.9 µM) |
| C[C@H]1COc2c(-c3cnc(N)nc3)ccc3c4ocnc4c(=O)n1c23 [Compound 94, (2S)-6-(2-aminopyrimidin-5-yl)-2-methyl-4,11-dioxa-1,13-diazatetracyclo[7.6.1.0^5,^16.0^10,^14]hexadeca-5(16),6,8,10(14),12-pentaen-15-one] | – | 1 to 10 (≈ 2.98 to 29.8 µM) | 1 to 10 (≈ 2.98 to 29.8 µM) | 10 to 100 (≈ 29.8 to 298 µM) | 10 to 100 (≈ 29.8 to 298 µM) | 1 to 10 (≈ 2.98 to 29.8 µM) |
| COc1c(N2CCC(N)C2)c(F)cc2c3ocnc3c(=O)n(C3CC3)c12 (stereo not drawn) [Compound 97, 7-(3-aminopyrrolidin-1-yl)-5-cyclopropyl-8-fluoro-6-methoxyoxazolo[4,5-c]quinolin-4-one] | – | < 1 | < 1 | 1 to 10 (≈ 2.79 to 27.9 µM) | 10 to 100 (≈ 27.9 to 279 µM) | 1 to 10 (≈ 2.79 to 27.9 µM) |
| Cc1c(-c2ccc(C(=O)O)cc2)ccc2c3oc(CN)nc3c(=O)n(C3CC3)c12 [Compound 102, 4-[2-(aminomethyl)-5-cyclopropyl-6-methyl-4-oxo-oxazolo[4,5-c]quinolin-7-yl]benzoic acid] | – | 1 to 10 (≈ 2.57 to 25.7 µM) | 1 to 10 (≈ 2.57 to 25.7 µM) | > 100 | > 100 | 10 to 100 (≈ 25.7 to 257 µM) |
| Cc1c(-c2cnc(N)nc2)ccc2c3oc(CN)nc3c(=O)n(C3CC3)c12 [Compound 103, 2-(aminomethyl)-7-(2-aminopyrimidin-5-yl)-5-cyclopropyl-6-methyl-oxazolo[4,5-c]quinolin-4-one] | – | 1 to 10 (≈ 2.76 to 27.6 µM) | 1 to 10 (≈ 2.76 to 27.6 µM) | 1 to 10 (≈ 2.76 to 27.6 µM) | 10 to 100 (≈ 27.6 to 276 µM) | < 1 |
| CCn1c(=O)c2ncoc2c2cc(F)c(-c3cc(F)c(N)cc3F)c(C)c21 [Compound 104, 7-(4-amino-2,5-difluoro-phenyl)-5-ethyl-8-fluoro-6-methyl-oxazolo[4,5-c]quinolin-4-one] | – | 1 to 10 (≈ 2.68 to 26.8 µM) | 1 to 10 (≈ 2.68 to 26.8 µM) | > 100 | 10 to 100 (≈ 26.8 to 268 µM) | 10 to 100 (≈ 26.8 to 268 µM) |
| CCn1c(=O)c2ncoc2c2cc(F)c(-c3cc(N)c(F)cc3F)c(C)c21 [Compound 105, 7-(5-amino-2,4-difluoro-phenyl)-5-ethyl-8-fluoro-6-methyl-oxazolo[4,5-c]quinolin-4-one] | – | 10 to 100 (≈ 26.8 to 268 µM) | 10 to 100 (≈ 26.8 to 268 µM) | 10 to 100 (≈ 26.8 to 268 µM) | 10 to 100 (≈ 26.8 to 268 µM) | 10 to 100 (≈ 26.8 to 268 µM) |
| CCn1c(=O)c2ncoc2c2cc(F)c(-c3ccc(N)nc3)c(C)c21 [Compound 106, 7-(6-amino-3-pyridyl)-5-ethyl-8-fluoro-6-methyl-oxazolo[4,5-c]quinolin-4-one] | – | 10 to 100 (≈ 29.6 to 296 µM) | 10 to 100 (≈ 29.6 to 296 µM) | > 100 | > 100 | 10 to 100 (≈ 29.6 to 296 µM) |
| CCn1c(=O)c2ncoc2c2cc(F)c(-c3ccc(N)c(F)c3)c(C)c21 [Compound 107, 7-(4-amino-3-fluoro-phenyl)-5-ethyl-8-fluoro-6-methyl-oxazolo[4,5-c]quinolin-4-one] | – | 10 to 100 (≈ 28.1 to 281 µM) | 10 to 100 (≈ 28.1 to 281 µM) | > 100 | > 100 | > 100 |
